Data set [1] has as its system normal adult mice. The data set can be described thus: Open field, time in the centre of the arena (anxiety). Format: in vivo. Particulars: 25 nmol/day, first five minutes of familiarization session. Here is the method: (§1) For the compound treatment, mice (8 animals/group) received subcutaneous implants of extended release depot pellets containing P21 or P22 at 25 nmol/day for 35 days of continuous dosing (Innovative Research of America, USA). For the control group (8 animals), pellets consisted of the carrier polymer only. Mice were anesthetized with 2.5% Avertin (0.38 ml for a 25 g animal). Under sterile conditions, pellets were implanted subcutaneously along the anterolateral aspect of the right shoulder with a precision trochar (Innovative Research of America). After recovery of anesthesia, animals were transferred to the animal colony. No complications associated with the implantation and treatment were observed. All procedures on animals were conducted in accordance with approved protocols from our Institutional Animal Welfare Committee.
The test used was an adaptation of the procedure previously described by Sargolini and collaborators (Sargolini, F., et al. Behav Brain Res 138 (2003):153-63). The testing apparatus was a classic open field (i.e. a PVC square arena, 50×50 cm, with walls 40 cm high). The open field was placed in a part of the room separated from the experimentator with a black opaque curtain. […] Object discrimination was calculated as follows: OD=(time spent close to new object)/(time spent close to new object)+(time spent close to old object)×100

Data set [2] relates to dentate gyrus. The data set can be described thus: Expression of synaptophysin and synapsin I in the DG (optical density). Format: in vivo, mice. To be noted: 25 nmol/day for 35 days. Here is the method: For double labeling of BrdU and NeuN, brain sections were pretreated with 2 M HCl at 37° C. for 30 min and neutralized with 0.1 M borate buffer (pH 8.5) for 10 minutes. Tissue sections were incubated first for 30 min with blocking buffer (4% normal goat serum+0.1% Tween-20 in PBS) and then overnight at 4° C. in the presence of BrdU (Millipore Corporation, USA) and NeuN (Millipore Corporation) antibodies diluted 1:400 and 1:100, respectively. To determine the integrity of presynaptic terminals, tissues were labeled with anti-synaptophysin (1:200; Clone SY38, Millipore Corporation) or anti-synapsin I (1:200; Stressgen Biotechnologies Corporation, Canada). The brain sections were incubated in primary antibody over night at 4° C., respectively. Alexa 488 and 594 (1:500; Invitrogen, USA) were used as secondary antibodies. All images were obtained using Nikon Eclipse 90i and D-Eclipse C1 microscopes (Nikon Corporation, Japan).
For quantitative analysis of the expression of synaptophysin and synapsin I in DG, every tenth section in a series of 40 μm coronal sections throughout the hippocampus was analyzed. The entire area of GCL was outlined. Maximum projection images were then generated based on confocal z-stacks, and antibody staining was quantified by measuring the mean optical density (OD) with the help of NIH Image J program, version 1.32j (http://rsb.info.nih.gov/ij/).

Data set [3] concerns LIF-induced STAT3 phosphorylation at Tyr705 in HepG2 cells. In words: LIF-induced STAT3 phosphorylation in HepG2 cells (Western blot). In kind it is cell-based, human. To be noted: 15 min. Here is the method:
HepG2 cells were treated with different concentrations of P21 together with 0.25 nM LIF for 15 min, and then the STAT3 phosphorylation at Tyr705 (pY-STAT3) was determined by Western blots. The pY-STAT3 value was normalized to total STAT3 expression. Data are presented as percentages of the value from cells treated with 0.25 nM LIF alone (100%). *p<0.05; **p<0.01.
To investigate the molecular mechanism of action of compound P21 in LIF signaling, HepG2 human hepatoma cell (ATCC, USA) at 80% confluence were treated with different concentrations of P21 and with 0.25 nM LIF (Peprotec, Inc., USA) for 15 min. The cells were lysed and subjected to Western blots developed with antibodies anti-phospho-Tyr 705 STAT3 and anti-STAT3 (Cell signaling Technology, USA).
To investigate whether P21 affects LIF signaling pathway, HepG2 cells were treated with different concentrations of P21 from 0.01 to 1000 nM along with 0.25 nM LIF for 15 min, and then measured STAT3 phosphorylation by Western blots. […] In HepG2 cells, 10 nM of P21 inhibited ˜30% of LIF-induced phosphorylation of STAT3 (p<0.005, student t-test; FIG. 15).
Background: Immunoblotting shows a protein as a band on a membrane.

For data set [4], the system named is normal adult mice. In words: One-trial object recognition test. To be noted: 25 nmol/day. Format: in vivo. Here is the method: as §1
In the one-trial object recognition task, animals are exposed to two different objects which they have to identify as novel or familiar based on the memory of an earlier experience with one of the two objects they encountered in the same open field. The familiar object is explored shorter than the novel encountered one because the representation of the former is still available in memory. The one-trial object recognition task tests some aspects of episodic memory but is limited to memory of an object (what), the location of an object (where), and the context in which it was encountered (which). However, the temporal dimension of the episode remains inaccessible to the experimentator, and because of this reason this task in animals is considered a test of short term memory.
The test used was an adaptation of the procedure previously described by Sargolini and collaborators (Sargolini, F., et al. Behav Brain Res 138 (2003):153-63). The testing apparatus was a classic open field (i.e. a PVC square arena, 50×50 cm, with walls 40 cm high). […] Object discrimination was calculated as follows: OD=(time spent close to new object)/(time spent close to new object)+(time spent close to old object)×100

Data set [5] in a line: General examination (physical state, body weight, exploratory activity, swim speed, floating). Particulars: 25 nmol/day for 35 days. In kind it is in vivo, mice. Here is the method: All in vivo studies for characterization of compounds (stereology and behavioral analysis) were performed on 8-10-month-old female retired breeders of C57Bl6 background. Animals were acclimatized for at least 3 weeks to exclude occasional pregnant mice from the studies. Mice were group-housed (3 animals per cage) with a 12:12 hours light/dark cycle and with free access to food and water.
as §1
The physical state and condition of animals were carefully monitored throughout the treatment by evaluating grooming, physical state and clasping reflex. Body weight was also recorded.
The test used was an adaptation of the procedure previously described by Sargolini and collaborators (Sargolini, F., et al. Behav Brain Res 138 (2003):153-63). The testing apparatus was a classic open field (i.e. a PVC square arena, 50×50 cm, with walls 40 cm high). The open field was placed in a part of the room separated from the experimentator with a black opaque curtain. The open field was surmounted by a video camera connected to a computer. Three objects were employed in this task. The general procedure consisted of three different phases: a familiarization phase (1 session of 20 min), a sample phase, and a test phase. On the first days, mice were individually submitted to the familiarization session during which they were introduced in the empty arena in order to become familiar with the apparatus. This familiarization session allowed to record a baseline level of locomotor activity (measuring the distance covered in the open field) and of anxiety (measuring the time the animals spent in the centre of the arena during the first five minutes). On the second day each mouse was first submitted to the sample phase (session 1, ten minutes) for which two identical objects were placed in a symmetric position from the centre of the arena. After a 15 minute delay during which the mouse returned to its home cage, it was reintroduced in the arena to perform the test phase (session 2, 10 min). The mouse was then exposed to two objects: a familiar object (previously presented during the sample phase) and a new object, placed at the same location as during the sample phase. Data collection was performed using a video tracking system (Smart version 2.0.14 software, Pan Lab/San Diego Instruments). Object discrimination was calculated as follows: OD=(time spent close to new object)/(time spent close to new object)+(time spent close to old object)×100

Molecules are shown by their SMILES. “Also recorded” adds a separate entry of the source. Peptide text beside a SMILES is read from it. * marks the point of attachment. X1 = NC(=O)C12CC3CC(CC(N*)(C3)C1)C2

These results are taken from patent publication US8592374B2, “Neurotrophic peptides” (Research Foundation for Mental Hygiene, Inc., priority 2007, dated 2013).

Regarding `CC(=O)N[C@@H](CC(=O)O)C(=O)NCC(=O)NCC(=O)N[C@@H](CC(C)C)C(=O)NC12CC3CC(C1)CC(C(N)=O)(C3)C2` [Peptide P21, Ac-DGGL^AG-NH2] (Ac-DGGL-X1), the “level of anxiety (time in the center of the open field)” value in data set [1] is recorded as “spent more time in the center of the open field than control animals; also recorded: reduced anxiety level”. For the same compound, in data set [2], the “synapsin I immunoreactivity in the GCL and MCL” value is “significantly promoted expression; also recorded: Significant increases”; the “synaptophysin immunoreactivity in the GCL and MCL” value is “significantly promoted expression; also recorded: Significant increases”. The “inhibition of LIF-induced phosphorylation of STAT3” value in data set [3] (10 nM P21, 0.25 nM LIF) is recorded as approximately 30%. In addition, the “LIF-induced STAT3 phosphorylation, concentration dependence” value in data set [3] (0.01 to 1000 nM P21, 0.25 nM LIF) is “dose-dependent manner; also recorded: inhibited slightly in a dose-dependent manner”. In addition, the “percentage of discrimination (object discrimination)” value in data set [4] (compared to other groups) is “significantly increased; also recorded: significantly improved the ability to discriminate a new object”. Further, the “time exploring the new object versus the familiar object” value in data set [4] (test phase after 15 minute delay) was “clearly spent more time exploring the new object”. The “exploratory behavior / exploratory activity” value in data set [5] (open field) was “no alteration; also recorded: did not induce any effect”. Further, in data set [5] (subcutaneous pellets), the body weight result is on record as “no alteration; also recorded: did not induce any effect” and the general physical state entry is “no alteration”.
